Measurements: PubChem BioAssay (NCI)
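Exposure lasted 48 hours, with cells grown in 96-well plates and compounds tested at five concentrations. GI50 is the concentration that inhibits growth by half. TGI marks complete inhibition of growth.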

Columns and labels:
Assay in all cases: growth of human tumour cells (NCI), 48 h
[1] = tested on: HOP-92 NSCLC
[2] = tested on: HCT-116 colon
[3] = tested on: OVCAR-4 ovarian
[4] = tested on: PC-3 prostate
[5] = tested on: A498 renal
[6] = tested on: CCRF-CEM leukemia
[7] = tested on: M14 melanoma
[8] = tested on: EKVX NSCLC
[9] = tested on: SK-MEL-5 melanoma
[10] = tested on: NCI-H23 lung
[11] = tested on: MDA-MB-231 breast
[12] = tested on: LOX IMVI melanoma
[13] = tested on: OVCAR-8 ovarian
[14] = tested on: NCI-H460 lung
[15] = tested on: HS 578T breast
[16] = tested on: A549 NSCLC
[17] = tested on: 786-0 renal
[18] = tested on: HOP-62 NSCLC
[19] = tested on: UACC-257 melanoma
[20] = tested on: SR leukemia
[21] = tested on: IGROV1 ovarian
[22] = tested on: RPMI-8226 leukemia
[23] = tested on: SF-295 CNS
[24] = tested on: DU-145 prostate
[25] = tested on: ACHN renal
[26] = tested on: SNB-19 CNS
[27] = tested on: T-47D breast
[28] = tested on: TK-10 renal
[29] = tested on: NCI-H226 lung
[30] = tested on: HCC-2998 colon

CC[C@@H](C(=O)[C@@H](C)[C@@H](O)[C@H](C)[C@@H]1O[C@@H]([C@@H](CC)C(=O)O)CC[C@@H]1C)C1O[C@]2(C=CC(=O)[C@]3(CC[C@@](C)([C@H]4CC[C@](O)(CC)[C@H](C)O4)O3)O2)[C@H](C)C[C@@H]1C (stereo partly drawn)
TGI [1]: 8.02 µM
GI50 [2]: 0.69 µM
TGI [2]: 15.3 µM
GI50 [3]: 1.1 µM
TGI [3]: 17.9 µM
GI50 [4]: 0.0665 µM
TGI [4]: 15.5 µM
GI50 [5]: 0.0631 µM
TGI [5]: 0.877 µM
GI50 [6]: 0.278 µM
TGI [6]: 9.3 µM
GI50 [7]: 1.41 µM
TGI [7]: 3.53 µM
GI50 [8]: 0.538 µM
TGI [8]: 18.7 µM
GI50 [9]: 0.0658 µM
TGI [9]: 0.232 µM
GI50 [10]: 0.0979 µM
TGI [10]: 8.93 µM
GI50 [11]: 0.854 µM
TGI [11]: 6.01 µM
GI50 [12]: 0.71 µM
TGI [12]: 13.8 µM
GI50 [13]: 1.73 µM
TGI [13]: > 45.2 µM
GI50 [14]: 0.408 µM
TGI [14]: 11.3 µM
GI50 [15]: 0.183 µM
TGI [15]: 14.9 µM
GI50 [16]: 0.342 µM
TGI [16]: 22.7 µM
GI50 [17]: 0.987 µM
TGI [17]: 14.5 µM
GI50 [18]: 0.334 µM
TGI [18]: 18.3 µM
GI50 [19]: 0.169 µM
TGI [19]: 16.7 µM
GI50 [20]: 0.0969 µM
GI50 [21]: 2.44 µM
TGI [21]: 20.4 µM
GI50 [22]: 0.0868 µM
TGI [22]: 4.81 µM
GI50 [23]: 1.21 µM
TGI [23]: 12.8 µM
GI50 [24]: 1.43 µM
TGI [24]: 18 µM
GI50 [25]: 1.33 µM
TGI [25]: 14.9 µM
GI50 [26]: 0.4 µM
TGI [26]: 6.96 µM
GI50 [27]: 0.0596 µM
TGI [27]: 17.3 µM
GI50 [28]: 2.08 µM
TGI [28]: 25.8 µM
GI50 [29]: 1.06 µM
TGI [29]: 9.77 µM
GI50 [30]: 0.152 µM
TGI [30]: 12.6 µM
